Reference: patent publication US20170050957A1, “4-AMINO-6-(HETEROCYCLIC)PICOLINATES AND 6-AMINO-2-(HETEROCYCLIC)PYRIMIDINE-4-CARBOXYLATES AND THEIR USE AS HERBICIDES” (Dow AgroSciences LLC, priority 2013, published 2017)
Where two headings read alike, the source gives them in different places. Values belong to the compound of their own block, whether it stands above or below them.

Assays:
[1] = test system: Key Broadleaf Weed and Crop Species; assay: Post-emergent Test II herbicidal activity (Table 15); type: in vivo; conditions: post-emergence, 336 h, 14 d; for pest or weed control at 35 g/ha: 35 g ai/ha
Experimental: (§1) Post-emergent Test II: Seeds or nutlets of the desired test plant species were planted in Sun Gro Metro-Mix® 360 planting mixture, which typically has a pH of 6.0 to 6.8 and an organic matter content of about 30 percent, in plastic pots with a surface area of 64 square centimeters. When required to ensure good germination and healthy plants, a fungicide treatment and/or other chemical or physical treatment was applied. The plants were grown for 7-21 d in a greenhouse with an approximate 15 h photoperiod which was maintained at about 23-29° C. during the day and 22-28° C. during the night. Nutrients and water were added on a regular basis and supplemental lighting was provided with overhead metal halide 1000-Watt lamps as necessary. The plants were employed for testing when they reached the first or second true leaf stage.
(§2) A weighed amount, determined by the highest rate to be tested, of each test compound was placed in a 25 mL glass vial and was dissolved in 4 mL of a 97:3 v/v mixture of acetone and DMSO to obtain concentrated stock solutions. […] The concentrated stock solutions obtained were diluted with 20 mL of an aqueous mixture containing acetone, water, isopropyl alcohol, DMSO, Atplus 411F crop oil concentrate, and Triton® X-155 surfactant in a 48.5:39:10:1.5:1.0:0.02 v/v ratio to obtain spray solutions containing the highest application rates. Additional application rates were obtained by serial dilution of 12 mL of the high rate solution into a solution containing 2 mL of 97:3 v/v mixture of acetone and DMSO and 10 mL of an aqueous mixture containing acetone, water, isopropyl alcohol, DMSO, Atplus 411F crop oil concentrate, and Triton X-155 surfactant in a 48.5:39:10:1.5:1.0:0.02 v/v ratio to obtain 1/2×, 1/4×, 1/8× and 1/16× rates of the high rate. Compound requirements are based upon a 12 mL application volume at a rate of 187 liters per hectare (L/ha). Formulated compounds were applied to the plant material with an overhead Mandel track sprayer equipped with 8002E nozzles calibrated to deliver 187 L/ha over an application area of 0.503 square meters at a spray height of 18 inches (43 cm) above the average plant canopy height. Control plants were sprayed in the same manner with the solvent blank.
(§3) The treated plants and control plants were placed in a greenhouse as described above and watered by subirrigation to prevent wash-off of the test compounds. After 14 d, the condition of the test plants as compared with that of the untreated plants was determined visually and scored on a scale of 0 to 100 percent where 0 corresponds to no injury and 100 corresponds to complete kill.

[2] = test system: Key Grass and Sedge Weeds as well as Grass Crops; assay: Post-emergent Test II herbicidal activity (Table 16); type: in vivo; conditions: for pest or weed control at 35 g/ha / pest or weed control at 70 g/ha / pest or weed control at 140 g/ha: post-emergence, 336 h, 14 days after application; for Visual Growth Reduction (%) 14 Days After Application, ECHCG / Visual Growth Reduction (%) 14 Days After Application, SETFA / Visual Growth Reduction (%) 14 Days After Application, ZEAMX / Visual Growth Reduction (%) 14 Days After Application, ORYSA / Visual Growth Reduction (%) 14 Days After Application, TRZAS / Visual Growth Reduction (%) 14 Days After Application, CYPES: 14 d
Experimental: as §1, §2, §3

melting point: 173 to 176 °C
SMILES: Cn1ccc2ccc(-c3nc(C(=O)O)c(Cl)c(N)c3F)cc21 [Compound 1.11]

melting point: 164 to 166 °C
SMILES: C=Cc1c(C(=O)OC)nc(-c2ccc3cc[nH]c3c2F)c(F)c1N [Compound 1.18, Methyl 4-amino-5-fluoro-6-(7-fluoro-1H-indol-6-yl)-3-vinylpicolinate]

melting point: 181 to 182 °C
SMILES: C=Cc1c(N)nc(-c2ccc3cc[nH]c3c2F)nc1C(=O)OC [Compound 1.38]

melting point: 167 to 169 °C
SMILES: COC(=O)c1nc(-c2cccc3c2ccn3C)c(F)c(N)c1Cl [Compound 1.41]

melting point: 158 to 160 °C
SMILES: Cn1ccc2c(-c3nc(C(=O)O)c(Cl)c(N)c3F)cccc21 [Compound 1.42]

melting point: 147 to 149 °C
SMILES: COC(=O)c1nc(-c2ccc(Cl)c3cc[nH]c23)nc(N)c1OC [Compound 1.50]

melting point: 114 to 117 °C
SMILES: COC(=O)c1nc(-c2ccc3occc3c2)c(F)c(N)c1Cl [Compound 2.01]

melting point: 149 to 150 °C
SMILES: Nc1c(F)c(-c2ccc3sccc3c2)nc(C(=O)O)c1Cl [Compound 3.04]

melting point: 181 to 184 °C
SMILES: COC(=O)c1nc(-c2cccc3c(Br)csc23)c(F)c(N)c1Cl [Compound 3.26, Methyl 4-amino-6-(3-bromobenzo[b]thiophen-7-yl)-3-chloro-5-fluoropicolinate]

melting point: 284 to 287 °C
SMILES: Nc1c(F)c(-c2ccc3[nH]ncc3c2)nc(C(=O)O)c1Cl [Compound 4.02]

melting point: 186 to 188 °C
SMILES: Cn1ncc2cc(-c3nc(C(=O)O)c(Cl)c(N)c3F)ccc21 [Compound 4.04]

melting point: 173 to 175 °C
SMILES: Cn1ncc2c(-c3nc(C(=O)O)c(Cl)c(N)c3F)cccc21 [Compound 4.11]

melting point: 212 to 215 °C
SMILES: COC(=O)c1nc(-c2cccc3[nH]ncc23)c(F)c(N)c1Cl [Compound 4.12]

melting point: 219 to 221 °C
SMILES: COC(=O)c1nc(-c2ccc3nc[nH]c3c2)c(F)c(N)c1Cl [Compound 7.01]

melting point: 230 to 235 °C (dec.)
SMILES: Cn1cnc2ccc(-c3nc(C(=O)O)c(Cl)c(N)c3F)cc21 [Compound 7.03]

SMILES: COC(=O)c1nc(-c2ccc3c(N(C)C)noc3c2)c(F)c(N)c1Cl [Compound 8.01]
pest or weed control at 35 g/ha ([1]; Abutilon theophrasti, velvetleaf (Abutilon theophrasti), read-out: Visual Growth Reduction (%) 14 Days After Application, ABUTH): 0 to 29%
pest or weed control at 35 g/ha ([1]; Amaranthus retroflexus, redroot pigweed (Amaranthus retroflexus), read-out: Visual Growth Reduction (%) 14 Days After Application, AMARE): 0 to 29%
pest or weed control at 35 g/ha ([1]; Brassica napus, oilseed rape, canola (Brassica napus), read-out: Visual Growth Reduction (%) 14 Days After Application, BRSNN): 0 to 29%
pest or weed control at 70 g/ha ([1]; Brassica napus, oilseed rape, canola (Brassica napus), 70 g ai/ha, read-out: Visual Growth Reduction (%) 14 Days After Application, BRSNN): 0 to 29%
pest or weed control at 140 g/ha ([1]; Brassica napus, oilseed rape, canola (Brassica napus), 140 g ai/ha, read-out: Visual Growth Reduction (%) 14 Days After Application, BRSNN): 0 to 29%
pest or weed control at 35 g/ha ([1]; Chenopodium album, lambsquarters (Chenopodium album), read-out: Visual Growth Reduction (%) 14 Days After Application, CHEAL): 0 to 29%
pest or weed control at 35 g/ha ([1]; Euphorbia heterophylla, wild poinsettia (Euphorbia heterophylla), read-out: Visual Growth Reduction (%) 14 Days After Application, EPHHL): 0 to 29%
pest or weed control at 35 g/ha ([1]; Helianthus annuus, sunflower (Helianthus annuus), read-out: Visual Growth Reduction (%) 14 Days After Application, HELAN): 0 to 29%
pest or weed control at 35 g/ha ([2]; Cyperus esculentus, yellow nutsedge (Cyperus esculentus), 35 g ai/ha, read-out: Visual Growth Reduction (%) 14 Days After Application CYPES): 0 to 29%
pest or weed control at 70 g/ha ([2]; Cyperus esculentus, yellow nutsedge (Cyperus esculentus), 70 g ai/ha, read-out: Visual Growth Reduction (%) 14 Days After Application CYPES): 0 to 29%
pest or weed control at 140 g/ha ([2]; Cyperus esculentus, yellow nutsedge (Cyperus esculentus), 140 g ai/ha, read-out: Visual Growth Reduction (%) 14 Days After Application CYPES): 0 to 29%
pest or weed control at 35 g/ha ([2]; Echinochloa crus-galli, barnyardgrass (Echinochloa crus-galli), 35 g ai/ha, read-out: Visual Growth Reduction (%) 14 Days After Application ECHCG): 0 to 29%
pest or weed control at 70 g/ha ([2]; Echinochloa crus-galli, barnyardgrass (Echinochloa crus-galli), 70 g ai/ha, read-out: Visual Growth Reduction (%) 14 Days After Application ECHCG): 0 to 29%
pest or weed control at 140 g/ha ([2]; Echinochloa crus-galli, barnyardgrass (Echinochloa crus-galli), 140 g ai/ha, read-out: Visual Growth Reduction (%) 14 Days After Application ECHCG): 0 to 29%
pest or weed control at 35 g/ha ([2]; Oryza sativa, rice (Oryza sativa), 35 g ai/ha, read-out: Visual Growth Reduction (%) 14 Days After Application ORYSA): 0 to 29%
pest or weed control at 70 g/ha ([2]; Oryza sativa, rice (Oryza sativa), 70 g ai/ha, read-out: Visual Growth Reduction (%) 14 Days After Application ORYSA): 0 to 29%
pest or weed control at 140 g/ha ([2]; Oryza sativa, rice (Oryza sativa), 140 g ai/ha, read-out: Visual Growth Reduction (%) 14 Days After Application ORYSA): 0 to 29%
pest or weed control at 35 g/ha ([2]; Setaria faberi, giant foxtail (Setaria faberi), 35 g ai/ha, read-out: Visual Growth Reduction (%) 14 Days After Application SETFA): 0 to 29%
pest or weed control at 70 g/ha ([2]; Setaria faberi, giant foxtail (Setaria faberi), 70 g ai/ha, read-out: Visual Growth Reduction (%) 14 Days After Application SETFA): 0 to 29%
pest or weed control at 140 g/ha ([2]; Setaria faberi, giant foxtail (Setaria faberi), 140 g ai/ha, read-out: Visual Growth Reduction (%) 14 Days After Application SETFA): 0 to 29%
pest or weed control at 35 g/ha ([2]; Triticum aestivum, wheat, spring (Triticum aestivum), 35 g ai/ha, read-out: Visual Growth Reduction (%) 14 Days After Application TRZAS): 0 to 29%
pest or weed control at 70 g/ha ([2]; Triticum aestivum, wheat, spring (Triticum aestivum), 70 g ai/ha, read-out: Visual Growth Reduction (%) 14 Days After Application TRZAS): 0 to 29%
pest or weed control at 140 g/ha ([2]; Triticum aestivum, wheat, spring (Triticum aestivum), 140 g ai/ha, read-out: Visual Growth Reduction (%) 14 Days After Application TRZAS): 0 to 29%
pest or weed control at 35 g/ha ([2]; Zea mays, maize, corn (Zea mays), 35 g ai/ha, read-out: Visual Growth Reduction (%) 14 Days After Application ZEAMX): 0 to 29%
pest or weed control at 70 g/ha ([2]; Zea mays, maize, corn (Zea mays), 70 g ai/ha, read-out: Visual Growth Reduction (%) 14 Days After Application ZEAMX): 0 to 29%
pest or weed control at 140 g/ha ([2]; Zea mays, maize, corn (Zea mays), 140 g ai/ha, read-out: Visual Growth Reduction (%) 14 Days After Application ZEAMX): 0 to 29%

SMILES: Nc1c(Cl)c(C(=O)O)nc(-c2ccc3cc[nH]c3c2)c1Cl [Compound 106]
Visual Growth Reduction (%) 14 Days After Application, ECHCG ([2]; barnyardgrass (Echinochloa crus-galli), 35 g ai/ha): G (0-29)
Visual Growth Reduction (%) 14 Days After Application, ECHCG ([2]; barnyardgrass (Echinochloa crus-galli), 70 g ai/ha): D (60-74)
Visual Growth Reduction (%) 14 Days After Application, ECHCG ([2]; barnyardgrass (Echinochloa crus-galli), 140 g ai/ha): C (75-84)
Visual Growth Reduction (%) 14 Days After Application, SETFA ([2]; giant foxtail (Setaria faberi), 35 g ai/ha): G (0-29)
Visual Growth Reduction (%) 14 Days After Application, SETFA ([2]; giant foxtail (Setaria faberi), 70 g ai/ha): G (0-29)
Visual Growth Reduction (%) 14 Days After Application, SETFA ([2]; giant foxtail (Setaria faberi), 140 g ai/ha): G (0-29)
Visual Growth Reduction (%) 14 Days After Application, ZEAMX ([2]; maize, corn (Zea mays), 35 g ai/ha): G (0-29)
Visual Growth Reduction (%) 14 Days After Application, ZEAMX ([2]; maize, corn (Zea mays), 70 g ai/ha): G (0-29)
Visual Growth Reduction (%) 14 Days After Application, ZEAMX ([2]; maize, corn (Zea mays), 140 g ai/ha): G (0-29)
Visual Growth Reduction (%) 14 Days After Application, ORYSA ([2]; rice (Oryza sativa), 35 g ai/ha): G (0-29)
Visual Growth Reduction (%) 14 Days After Application, ORYSA ([2]; rice (Oryza sativa), 70 g ai/ha): G (0-29)
Visual Growth Reduction (%) 14 Days After Application, ORYSA ([2]; rice (Oryza sativa), 140 g ai/ha): G (0-29)
Visual Growth Reduction (%) 14 Days After Application, TRZAS ([2]; wheat, spring (Triticum aestivum), 35 g ai/ha): G (0-29)
Visual Growth Reduction (%) 14 Days After Application, TRZAS ([2]; wheat, spring (Triticum aestivum), 70 g ai/ha): G (0-29)
Visual Growth Reduction (%) 14 Days After Application, TRZAS ([2]; wheat, spring (Triticum aestivum), 140 g ai/ha): G (0-29)
Visual Growth Reduction (%) 14 Days After Application, CYPES ([2]; yellow nutsedge (Cyperus esculentus), 35 g ai/ha): G (0-29)
Visual Growth Reduction (%) 14 Days After Application, CYPES ([2]; yellow nutsedge (Cyperus esculentus), 70 g ai/ha): G (0-29)
Visual Growth Reduction (%) 14 Days After Application, CYPES ([2]; yellow nutsedge (Cyperus esculentus), 140 g ai/ha): G (0-29)
